Reference: US20260015322A1, “DELIVERY OF THERAPEUTIC ALKALOID COMPOUNDS” (priority 2022, published 2026)
Read-outs that look alike come from different tables or passages of the source.

What was measured:
[1] = Hydrolysis Assay - Condition 2 (DI Water); type: physicochemical; details: 25° C., 0.5 mM
Description: 50 uL of compound (10 mM) in DMSO was diluted into 950 uL of DI water to a final concentration of 0.5 mM. The hydrolysis kinetics were conducted at 25° C. and measured by LCMS at a certain time interval.
(§1) The corresponding LCMS chromatogram were recorded and the conversions were calculated by integration of each peak.
(§2) • 1) LCMS spectra were obtained using Agilent 1200G1956A or SHIMADZU LCMS-2020. • Standard LCMS conditions were as follows (running time 1.55 minutes): • Acidic condition: Mobile Phase A: 0.0375% TFA in water (v/v). Mobile Phase B: 0.01875% TFA in acetonitrile (v/v); Column: Kinetex EVO C18 30*2.1 mm, 5 μm. • Basic condition: Mobile Phase A: 0.025% NH3·H2O in water (v/v). Mobile Phase B: Acetonitrile; Column: Kinetex EVO C18 2.1×30 mm, 5 μm. • 2) Conversion (%)=peak area 1/(peak area 1+peak area 2)*100%, peak area 1 is the integration of hydrolyzed product, peak area 2 is the integration of starting material.

[2] = Plasma Stability Assay (Example A3), human plasma; type: in vitro ADME; details: 10 μM, 37° C., prodrug remaining
Source text: (§3) The data is represented in the table below.

[3] = Plasma Stability Assay (Example A3), rat plasma; type: in vitro ADME; details: 10 μM, 37° C., prodrug remaining
Source text: as §3

[4] = Metabolic Stability in Human Hepatocytes; type: in vitro ADME; details: cryopreserved human hepatocytes, 5×10^5 viable cells/mL, 37° C.
Description: A 2.5 uL aliquot of 100 μM test compound was incubated with 247.5 uL of cryopreserved hepatocytes suspended in serum-free incubation medium at 5×10^5 viable cells/mL. The mixture was incubated at 37° C. and shaken at 500 rpm for the designated time points (0.5, 15, 30, 60, 90, or 120 min). At each time point, 25 μL aliquot of incubation mixture was transferred to 125 μL of cold acetonitrile containing internal standard, followed by centrifugation for 30 min at 3,220 g. 100 μL of supernatant was mixed with 100 μL of distilled water for analysis by LC-MS/MS. Peak areas were determined from extracted ion chromatograms and in vitro half-life (t1/2) was determined from the concentration vs time regression slope, in vitro t1/2=0.693/k. Conversion of the in vitro t1/2 (in min) into the in vitro intrinsic clearance (in vitro CLint, in μL/min/10^6 cells) is done using: in vitro CLint=kV/N.

[5] = Hydrolysis Assay - Condition 1 (SGF); type: physicochemical; details: Condition 1: SGF with pepsin pH 1.5, 37° C., 0.5 mM
Description: 50 uL of compound (10 mM) in DMSO was diluted into 950 uL of Simulated Gastric Fluid (SGF) with pepsin (pH 1.5) to a final concentration of 0.5 mM. The hydrolysis kinetics were conducted at 37° C. and measured by LCMS at a certain time interval.
as §1, §2

[6] = Plasma Stability Assay (Example A2), human plasma; type: in vitro ADME; details: 37° C., prodrug remaining
Description: (§4) Each test was carried out in duplicate for each time point; 0 min, 15 min, 30 min, 60 min, 120, 240 min. […]

[7] = Plasma Stability Assay (Example A2), mouse plasma; type: in vitro ADME; details: Mouse Plasma, 37° C., prodrug remaining
Description: as §4

[8] = in vivo; type: in vivo, male C57BL/6 mice; details: 321 IV 2 mg/kg, mice
Description: Total fifteen male mice were used in this study with n=3 mice/time point with sparse sampling study design. Animals were administered through intravenous route with solution formulation of 321 at 2 mg/kg dose.
The extraction procedure for plasma/brain samples and the spiked plasma/brain calibration standards were identical (PMSF Stabilized Plasma and Brain used for Preparation of calibration standards): A 20 μL of study sample plasma/brain or spiked plasma/brain calibration standard was added to individual pre-labeled micro-centrifuge tubes followed by 200 μL of internal standard prepared in acetonitrile (Rosuvastatin, 50 ng/mL) was added except for blank, where 200 μL of acetonitrile was added. Samples were vortexed for 5 minutes. Samples were centrifuged for 10 minutes at a speed of 4000 rpm at 4° C. Following centrifugation, 200 μL of clear supernatant was transferred in 96 well plates and analyzed using LC-MS/MS.
Brain samples were diluted (1-part of tissue: 2-part of buffer) and homogenized. The homogenate was submitted for bioanalysis and the concentrations (ng/mL) received were corrected with dilution factor (3×) and the final reported concentrations were represented in ng/g.
The plasma and brain concentration-time data of 321 and 001 were used for the pharmacokinetic analysis.

[9] = male, C57BL/6, mouse, in vivo, 321, read-out: Brain concentrations (mean)
[10] = male, C57BL/6, mouse, in vivo, 321, read-out: Plasma concentrations (mean)

COc1ccc([C@@]23CCC(OP(=O)(OC(C)C)OC(C)C)=C[C@@H]2N(C)CC3)cc1OC [Compound 321, [(3aS,7aS)-3a-(3,4-dimethoxyphenyl)-1-methyl-3,4,5,7a-tetrahydro-2H-indol-6-yl]diisopropyl phosphate]
Conversion (%) ([1]; 1 min): 0% | Conversion (%) ([1]; 5 min): 0% | Conversion (%) ([1]; 30 min): 0% | Conversion (%) ([1]; 1 h): 0% | Conversion (%) ([1]; 4 h): 0% | Conversion (%) ([1]; 24 h): 0% | Prodrug (%) ([2]; 0 min): 100.0% | Prodrug (%) ([2]; 10 min): >99% | Prodrug (%) ([2]; 30 min): >99% | Prodrug (%) ([2]; 60 min): 98.1% | Prodrug (%) ([2]; 120 min): 94.5% | Prodrug (%) ([2]; 240 min): 96.3% | Prodrug (%) ([3]; 0 min): 100.0% | Prodrug (%) ([3]; 10 min): 74.0% | Prodrug (%) ([3]; 30 min): 69.8% | Prodrug (%) ([3]; 60 min): 69.2% | Prodrug (%) ([3]; 120 min): 68.4% | Prodrug (%) ([3]; 240 min): 65.7% | t1/2 [4]: 23 min | Conversion (%) ([5]; 1 min): 0% | Conversion (%) ([5]; 5 min): 0% | Conversion (%) ([5]; 30 min): 0% | Conversion (%) ([5]; 1 h): 0% | Conversion (%) ([5]; 4 h): 0% | Conversion (%) ([5]; 24 h): 0% | Prodrug (%) ([6]; 0 min): 100% | Prodrug (%) ([6]; 15 min): >99% | Prodrug (%) ([6]; 30 min): >99% | Prodrug (%) ([6]; 60 min): >99% | Prodrug (%) ([6]; 120 min): >99% | Prodrug (%) ([6]; 240 min): 78.2% | Prodrug (%) ([7]; 0 min): 100% | Prodrug (%) ([7]; 15 min): 77.3% | Prodrug (%) ([7]; 30 min): 74.5% | Prodrug (%) ([7]; 60 min): 58.4% | Prodrug (%) ([7]; 120 min): 43.1% | Prodrug (%) ([7]; 240 min): 31.7% | Brain-Kp [8]; 321: 0.28 | brain concentrations quantifiable up to [8]; 321: ≤ 0.5 h | plasma concentrations quantifiable up to [8]; 321: up to 2 h | T1/2 ([8]; 321 in Brain): 6.6 min | Vss ([8]; 321 in Brain): 10.34 L/kg | CL ([8]; 321 in Brain, marked NR (not reportable)): NR (1154.07) mL/min/kg | AUClast ([8]; 321 in Plasma): 97.14 ng·h/mL | C0 (back extrapolated concentration) ([8]; 321 in Plasma): 503.64 ng/mL | CL ([8]; 321 in Plasma): 340.73 mL/min/kg | T1/2 ([8]; 321 in Plasma): 21.6 min | Vss ([8]; 321 in Plasma): 4.80 L/kg | concentration at 0.08 h [8, 9]: 99.6 ng/g | concentration at 0.08 h [8, 10]: 305 ng/mL | concentration at 0.25 h [8, 9]: 37.1 ng/g | concentration at 0.25 h [8, 10]: 105 ng/mL | concentration at 0.5 h [8, 9]: 7.89 ng/g | concentration at 0.5 h [8, 10]: 26.2 ng/mL | concentration at 1 h ([8]; male, C57BL/6, mouse, in vivo, 321, 1 h, read-out: Plasma concentrations (mean)): 8.57 ng/mL | concentration at 2 h ([8]; male, C57BL/6, mouse, in vivo, 321, 2 h, average of two values, read-out: Plasma concentrations (mean)): 1.38 ng/mL
